Reference: patent US11591564B2, “Peptide conjugated hydrogel substrate for the maintenance and expansion of human pluripotent stem cells” (University of Pittsburgh—Of the Commonwealth System of …, priority 2016, dated 2023)
Several values for one entry are separate records, joined by “and”; a condition that tells them apart may be missing. Identical values can stand only once. No end group written: not given here.

Tests used:
H1 hESCs [1] = assay: Day 1 cell attachment to peptide conjugated alginate hydrogel (DiD label, LI-COR MFI); assay type: cell-based, human; details: peptide conjugated to alginate at 0-500 μg/ml
Procedure: The alginate hydrogels were formed prior to peptide attachment. The culture well was coated with a thin layer of 1.1% (w/v) low viscosity alginate (Sigma-Aldrich) with 0.2% (v/v) gelatin (Sigma-Aldrich), which was allowed to dry overnight. 20 mM BaCl2 was used to rehydrate and simultaneously cross link the alginate in a thin hydrogel covering the bottom of the culture well. Peptide conjugation was done using water soluble carbodiimide chemistry. Alginate hydrogels were activated by incubating with 20 mM/10 mM EDC/NHS in buffer containing 0.3 M 2-(N-morpholino) ethanesulfonic acid (MES) and 0.1 M NaCl, for 15 min. The peptides were then added and incubated overnight at 4° C. to allow for peptide conjugation to the […] of the alginate hydrogel. After conjugation, peptide modified hydrogels were washed with 0.9% saline prior to seeding cells.
Cell Attachment. For cell attachment studies to the peptide modified hydrogels, hESC were first labeled with DiD according to manufactures instruction, a fluorescent lipophilic dye, which is incorporated in the cell membrane. hESC were treated with 10 μm Y-27632 (R&D Systems, Minneapolis, Min.) for 2 hours prior to harvesting by Accutase (Invitrogen) treatment for 5-7 min. […] Cell attachment was analyzed 24 hours after seeding. First, total cell number per well was quantified using the LI-COR Odyssey scanner and Image Studio software to obtain the total possible MFI. Dead and unattached cells were washed away and the number of attached cells per well was again quantified using the LI-COR Odyssey scanner Image Studio software. […]
Having confirmed peptide conjugation to the alginate hydrogel, our first step was to analyze cell attachment to each peptide conjugated substrate. […] After 1 day, cell attachment was quantified for each tested condition using the LI-COR Odyssey scanner. Percent cell attachment was determined by scanning the signal for total seeded cells (prior to wash) and attached cells (post-wash) and normalizing the attached cell MFI to the total cell MFI, for each peptide and peptide concentration (FIG. 9A).

H1 hESCs [2] = assay: Pluripotency after propagation, qRT-PCR of OCT4 and Nanog; assay type: cell-based, human; details: 6 days on alginate conjugated with 50 μg/ml peptide
Procedure: (§1) hESC seeded on the peptide modified alginate hydrogels were propagated for 4 days in mTeSR1 with 10 μm Y-27632 prior to DE induction. DE was induced using 100 ng/ml ActivinA (R&D Systems) with 25 ng/ml Wnt3A (R&D Systems) for 4 days. Quantitative Reverse Transcriptase Polymerase Chain Reaction. mRNA was isolated using the NucleoSpin RNA II kit (Macherey-Nagel, Bethlehem, Pa.). cDNA was obtained using ImpromII Reverse Transcription (Promega, Madison, Wis.). Each PCR reaction contained 5 μl SYBR Green Master Mix (Agilent, Santa Clara, Calif.), 2 μl nuclease free H2O, 2 μl primer, and 10 cDNA. Samples were normalized to the house keeping gene GAPDH and analyzed relative to UD hESCs using the ΔΔCt method. Gene expression was measured with quantitative polymerase chain reaction (qRT-PCR) using an MX3005P system (Agilent).
Having confirmed that the substrates supported attachment and propagation of hPSCs, the next step was to analyze the maintenance of hPSC pluripotency after propagation. hPSC pluripotency is the ability to become any cell type in the body, and along with self-renewal, is the defining characteristic of hPSCs. The maintenance of pluripotency is critical for the downstream differentiation of hPSC into any functional cell types, for cell therapy applications. hPSCs were seeded on alginate conjugated with 50 μg/ml of HAV10, ADT10, HAV6, or ADT, and propagated for 6 days. […] As before, cell morphology was similar across each peptide, and appeared to have similar morphology to the typical hPSC colony (FIG. 12A).

H1 hESCs [3] = assay: Cell expansion by MTS assay, day 6 normalized to day 1; assay type: cell-based, human; details: 6 days of propagation; alginate modified with 50 μg/ml peptide, or recombinant E-cadherin
Procedure: To determine cell expansion, cellular metabolism was assayed on cells attached to alginate conjugated with 50 μg/ml of each peptide using the CellTiter 96® AQueous One Solution Cell Proliferation Assay (MTS) after 1 and 6 days of culture, according to manufacturer's instructions. Briefly, cells were incubated with the MTS solution at a 1:5 v/v dilution for 3 hours at 37° C. Absorbance intensity of the supernatant at 490 nm was measured using a Synergy 2 multi-mode Microplate Reader. Fold expansion was determined by normalizing the day 6 absorbance by the day 1 absorbance, for cells grown on each peptide-conjugated alginate substrate.
Since high cell expansion is necessary to generate clinically relevant numbers of hPSCs, we next quantified the expansion potential of hPSCs grown on each peptide. Expansion potential was determined by normalizing cell number after 6 days of propagation, by day 1 cell number using MTS.

H1 hESCs [4] = assay: Directed differentiation to definitive endoderm, qRT-PCR of SOX17 and FOXA2; assay type: cell-based, human; details: for FOXA2 gene expression, fold increase / SOX17 gene expression, upregulation compared to undifferentiated hESC controls: after DE induction (ActivinA + Wnt3A, 4 days); for FOXA2 expression, difference compared to Matrigel / SOX17 expression, difference compared to Matrigel: after DE induction
Procedure: as §1
Having confirmed that hPSCs maintained high pluripotency after being propagated on the E-cadherin mimicking substrates, the next question was if the differentiation potency was also maintained. To evaluate differentiation potential, cells were induced toward the definitive endoderm (DE) germ layer.

hPSCs = hPSCs encapsulated in alginate beads (3D), 10-100 mM BaCl2 tested, day 6
Procedure: hESCs were encapsulated using 10, 15, 20, 50 or 100 mM BaCl2 at a seeding density of 1×10^6 cells/ml of alginate solution. Alginate capsules were incubated for 6-8 min in the BaCl2 solution. Capsules were washed three times with DMEM/F12 and suspended in mTeSR1 ([sequence] Technologies, Vancouver, BC) with 10 mM of the ROCK inhibitor (rho-associated, coiled-coil containing protein kinase inhibitor) Y-27632 (e.g., 4-[(1R)-1-aminoethyl]-N-4-pyridinyl-trans-cyclohexanecarboxamide, dihydrochloride, [sequence] Technologies, Vancouver, BC) for 4 days, followed by 2 days in mTeSR1 alone to allow for colony formation. On day 6, viability of encapsulated hPSCs was analyzed by LIVE/DEAD staining, and imaged with fluorescent microscopy. The stock LIVE images from LIVE/DEAD analysis were processed using Metamorph Integrated Morphometry Analysis. hPSC colony data was generated for each colony within each image, measuring the area of the colony. This image processing was done on images taken on 5 capsules, each day for each condition.

hESCs = assay: hESC attachment and viability on HAV10-modified LBL films, effect of EDC/NHS concentration; assay type: cell-based; details: EDC/NHS used for HAV10 conjugation of PEI(Alg/PAH)5Alg films; 6 hours attachment
Procedure: Layer-by-layer (LBL) coating onto glass coverslips was initiated by incubation in 1.1 mg/ml Polyethylenimine (PEI) for 5 min. The polyelectrolyte solutions used for LBL deposition were 1.1 mg/ml low viscosity alginate (Alg) and poly (allylamine hydrochloride) (PAH), made using 0.1 M 2-(N-morpholino) ethanesulfonic acid (MES) buffer with 0.3M NaCl at pH 6.5. Polyelectrolyte multilayers were deposited by alternatively immersing slides into Alg, followed by PAH, for 1 min each, and were subsequently washed with 0.9% NaCl for 1 min between each deposition step. This process was repeated for 5 Alg/PAH layers, and the film was terminated with a final Alg layer (PEI(Alg/PAH)5Alg). Coverslips were dried at room temperature until used.
Prepared PEI(Alg/PAH)5Alg films were functionalized with the e-cadherin mimicking peptide HAV10 using water soluble carbodiimide chemistry. […]
Human embryonic stem cells (hESCs) were treated with the ROCK inhibitor Y-27632 for 2 hours prior to harvesting. hESCs were harvested using enzyme-free dissociation buffer and were treated with the Vibrant DiD cell labeling solution, to allow for visualization of cell attachment (700 nm). […] Cell attachment for each condition was determined by normalizing the MFI of attached cells to the MFI of the total possible number of cells, for each well imaged.

Row | Compound | peptide concentration at which cell attachment peaked (H1 hESCs [1]) [µg/mL] | Nanog gene expression, upregulation compared to Matrigel (H1 hESCs [2]) | OCT4 gene expression, upregulation compared to Matrigel (H1 hESCs [2]) | fold expansion of hPSCs (day 6 / day 1) (H1 hESCs [3]) | FOXA2 gene expression, fold increase (H1 hESCs [4]) [fold] | SOX17 gene expression, upregulation compared to undifferentiated hESC controls (H1 hESCs [4]) [fold] | FOXA2 expression, difference compared to Matrigel (H1 hESCs [4]) | SOX17 expression, difference compared to Matrigel (H1 hESCs [4]) | BaCl2 concentration supportive and strongly inductive of hPSC growth (hPSCs) [mM] | cell attachment compared among peptides (H1 hESCs [1]) | toxicity towards hPSC attachment and viability (hESCs)
1 | ADTPPV (also: conjugated to alginate hydrogel, site not given here) [ADT6] | 50 | on par with Matrigel | on par with Matrigel | 11 fold | 174 | 3400 |  |  |  |  | 
2 | LFSHAVSSNG (also: conjugated to alginate hydrogel, site not given here) [HAV10] | 50 |  |  | approximately 23 fold | 497 | ~15000 | no statistical difference | no statistically significant difference |  |  | 
3 | [Ba+2].[Cl-].[Cl-] [Barium Chloride (BaCl2), Barium Chloride] |  |  |  |  |  |  |  |  | < 15 |  | 
4 | QGADTPPVGV (also: conjugated to alginate hydrogel, site not given here) [ADT10] |  | 1.5 fold and 1.6 fold | 3 fold and 3.6 fold | approximately 14 fold | 409 | ~13700 | no statistical difference | no statistically significant difference |  | highest cell attachment among all peptides | 
5 | SHAVSS (also: conjugated to alginate hydrogel, site not given here) [HAV6] |  | 1.5 fold | 2 fold | 16 fold | 355 | 5900 |  |  |  |  | 
6 | 1-ethyl-3-(-3-dimethylaminopropyl) carbodiimide hydrochloride (EDC)/N-hydroxysuccinimide (NHS) [EDC/NHS] |  |  |  |  |  |  |  |  |  |  | mild toxicity
